Experiment [1] deals with T1, AAK1 (full length human) with AP2M1 in HEK293F cells (Homo sapiens, UniProt Q2M2I8).
T1 construct: expressed in transfected cells; host or cells: HEK293F
Nature of the experiment: HEK281 cell-based assay (phospho-mu2 Western blot in transfected HEK293F cells). The note with it: 3 hours, inhibition of mu2 phosphorylation. The protocol:
HEK293F cells were cultured in media containing DMEM (Gibco, cat. #11965), 10% FBS (SAFC Biosciences, cat. #12103C), 1×GPS (glutamine, penicillin and streptomycin). On day one, cells were plated on a 10 cm dish so that they are ˜80% confluent at time of transfection. Roughly 12 million cells were in a 10 cm dish at time of transfection. On day two, each dish was transfected with 48 ug DNA and 144 ul Lipofectamine 2000 (Invitrogen, cat. #11668-019). The DNA was comprised of a mixture (per 10 cm dish) containing 3 ug AAK1/HA/pIRES (full length human, NCBI accession no. NP_055726.2), 45 μg Flag/AP2MI/pcDNA (full length human), and 1.5 ml OPTI-MEM. The Lipofectamine 2000 is made up of a mixture (per 10 cm dish) containing 144 μl Lipofectamine 2000 and 1.5 ml OPTI-MEM. Each mixture was transferred to individual 15 ml tubes and incubated at RT for 5 minutes, and then the two mixes were combined and incubated at RT for 20 minutes. Growth media was then aspirated from each 10 cm plate and replaced with 10 ml of DMEM+10% FBS (no GPS). Finally, 3 ml DNA/Lipofectamine mix was added to each 10 cm dish and mix gently followed by incubate of plate overnight at 37° C. and 5% CO2.
On day three, compounds were diluted in 100% DMSO at 1000× final concentration, followed by 3-fold serial dilutions for a total of 5 concentrations tested. Four compounds were tested per 10 cm dish. One ul of each compound dilution was then pipetted into a deep-well, 96-well plate, followed by addition of 500 μl DMEM+0.5% FBS into each well for a 2× final concentration of each compound. Cells were resuspended in a 10 cm dish by simple pipetting (HEK293 cells come off the plate that easy at this point) and then transferred to a 50 ml conical tube and pelleted by centrifugation at 1000 rpm for 5 min. Cell pellets were then resuspended in 2.75 ml DMEM+0.5% FBS per 10 cm dish and 100 μl of cell suspension transferred into each well of 96-well TC plate. Finally, 100 μl of 2× compound diluted in DMEM+0.5% FBS was then added into wells containing cell suspension for a 1× final concentration. Plates were then incubated at 37° C. and 5% CO2 for 3 hours followed by transferring of cell suspensions from each well into 12-tube PCR strips. The PCR strips were spun in a tip rack at 1000 rpm for 5 minutes to pellet cells and media was then removed by pipetting without disturbing the cell pellet.
To prepare for Western Blot analysis, cell pellets were resuspend in 40 ul 1×LDS-PAGE sample buffer (Invitrogen, cat. # NP0008)+2× Halt phosphatase and protease inhibitor cocktail (Thermo Scientific, cat. #1861284), followed by sonicating each with microtip sonicator set at 5 for 8-10 seconds. Five ul of 10× NuPage Sample Reducing Agent (with […]) was to each sample followed by heat denaturing at 70 C for 10 min on PCR machine. A total of 10 μl per sample was loaded into each lane of a 4-20% Tris-Glycine Criterion 26-well gel (Biorad, cat. #345-0034) for the phospho-mu2 blot and 10 μl per lane in a 4-12% Bis-Tris (+MES buffer) NuPAGE 26-well gel (Invitrogen, cat. # WG1403BX10) for the mu2 blot. For controls, 2 ng of phospho-mu2 or 20 ng mu2/Flag proteins were loaded in the last well of each gel. After SDS-PAGE, samples on each gel were transferred to PVDF membrane using an iBlot and membranes were blocked for one hour in TBST+5% milk, followed by wash 3× for 5-10 min with TBST. Criterion gels were probed with rabbit anti-phospho-mu2 (1:5000; a rabbit polyclonal antibody produced by New England Peptide and affinity purified at Lexicon) in TBST+5% BSA, whereas, NuPAGE gels were probed with mouse anti-Flag (1:500; Sigma, cat. # F1804) in TBST+5% milk, and these primary antibodies were incubated overnight at 4° C. on a rocker. […]

The target in experiment [2] is T2, GST-Xa-hAAK1 (Homo sapiens, UniProt Q2M2I8).
T2 construct: made in house
Nature of the experiment: AAK1 kinase assay. The note with it: ATP 22 μM, 3 hours at room temperature. It is filed as biochemical. The procedure:
The assays were performed in U-bottom 384-well plates. […] The reactions were initiated by the combination of bacterially expressed, GST-Xa-hAAK1 with substrates and test compounds. The reactions were incubated at room temperature for 3 hours and terminated by adding 60 μl of 35 mM EDTA buffer to each sample. The reactions were analyzed on the Caliper LabChip 3000 (Caliper, Hopkinton, Mass.) by electrophoretic separation of the fluorescent substrate and phosphorylated product. […] Compounds were dissolved at 10 mM in dimethylsulfoxide (DMSO) and evaluated at eleven concentrations. IC50 values were derived by non-linear regression analysis.

For 25 compounds, IC50 results are on record in patent publication US8901305B2, “Aryl lactam kinase inhibitors” (Bristol-Myers Squibb Company, priority 2012, dated 2014).

SMILES strings stand for the structures.

T2 sequence (Q2M2I8 whole entry): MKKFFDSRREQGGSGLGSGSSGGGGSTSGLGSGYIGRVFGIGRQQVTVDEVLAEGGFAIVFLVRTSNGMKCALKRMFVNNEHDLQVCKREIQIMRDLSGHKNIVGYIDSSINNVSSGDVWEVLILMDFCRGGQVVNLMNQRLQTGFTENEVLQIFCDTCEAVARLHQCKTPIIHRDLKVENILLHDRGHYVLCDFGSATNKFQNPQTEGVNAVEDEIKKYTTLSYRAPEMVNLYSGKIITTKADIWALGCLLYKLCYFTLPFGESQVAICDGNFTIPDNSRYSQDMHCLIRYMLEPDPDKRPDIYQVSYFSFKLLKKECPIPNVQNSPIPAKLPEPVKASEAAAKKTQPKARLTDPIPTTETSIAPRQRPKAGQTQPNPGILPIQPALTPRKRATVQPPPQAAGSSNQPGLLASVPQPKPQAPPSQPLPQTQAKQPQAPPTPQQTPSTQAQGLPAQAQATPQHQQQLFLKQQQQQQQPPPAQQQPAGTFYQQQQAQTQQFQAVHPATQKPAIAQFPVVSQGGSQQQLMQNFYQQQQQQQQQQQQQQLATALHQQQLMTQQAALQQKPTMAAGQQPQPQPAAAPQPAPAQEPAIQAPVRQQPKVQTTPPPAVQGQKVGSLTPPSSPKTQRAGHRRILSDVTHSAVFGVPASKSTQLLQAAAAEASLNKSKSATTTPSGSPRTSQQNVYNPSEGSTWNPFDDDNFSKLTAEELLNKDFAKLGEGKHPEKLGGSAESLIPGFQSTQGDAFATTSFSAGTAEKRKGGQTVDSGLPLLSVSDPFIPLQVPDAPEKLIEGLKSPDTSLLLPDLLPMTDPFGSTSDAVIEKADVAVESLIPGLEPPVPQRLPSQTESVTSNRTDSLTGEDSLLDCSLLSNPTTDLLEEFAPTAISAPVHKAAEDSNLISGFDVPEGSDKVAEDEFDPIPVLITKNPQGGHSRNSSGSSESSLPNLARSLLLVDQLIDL
T1 sequence (Q2M2I8 whole entry): as above

In the case of `CN[C@H](COc1cc2c(cc1C#N)c1ccnc(C)c1c(=O)n2C)CC(C)C` [Example 65, (S)-4,6-dimethyl-8-(4-methyl-2-(methylamino)pentyloxy)-5-oxo-5,6-dihydrobenzo[c][2,7]naphthyridine-9-carbonitrile], the IC50 in experiment [1] (given as IC50 range) fell in the range of 1 to 10 nM. In the case of `CC(C)C[C@H](N)COc1ccc2c(c1)[nH]c(=O)c1cnccc12` [Example 1, (S)-8-(2-amino-4-methylpentyloxy)benzo[c][2,7]naphthyridin-5(6H)-one], the IC50 in experiment [1] came out at 14 nM; in experiment [2] it was 5.7 nM.

Turning to `Cc1nccc2c1c(=O)n(C)c1cc(OCC(C)(N)CC(C)C)ccc21` (centres unmarked) [Example 32, 8-((2-amino-2,4-dimethylpentyl)oxy)-4,6-dimethylbenzo[c][2,7]naphthyridin-5(6H)-one], the figures for the IC50 in experiment [1] (given as IC50 range) and in experiment [2] were 10 to 100 nM and 3.9 nM, respectively. `C=CCn1c(=O)c2cnccc2c2ccc(OC[C@@H](N)CC(C)C)cc21` [Example 9, (S)-6-allyl-8-((2-amino-4-methylpentyl)oxy)benzo[c][2,7]naphthyridin-5(6H)-one]: the IC50 in experiment [1] came to 24 nM; in experiment [2], 9.7 nM. As to `CC(C)C[C@H](N)COc1cc2c(cc1C1CC1)c1ccncc1c(=O)n2C` [Example 6, (S)-8-((2-amino-4-methylpentyl)oxy)-9-cyclopropyl-6-methylbenzo[c][2,7]naphthyridin-5(6H)-one], the results for the IC50 in experiment [1] and in experiment [2] (given as IC50 range) were 2.1 nM and 1 to 10 nM, respectively. Regarding `Cc1nccc2c1c(=O)n(C)c1cc(OC[C@](C)(N)CC(C)C)ccc21` (single isomer, unassigned) [Example 37], the IC50 in experiment [1] (given as IC50 range) was 10 to 100 nM; in experiment [2], 3.9 nM.

Consider `Cc1nccc2c1c(=O)n(C)c1cc(OC[C@@H](N)CC(C)C)c(C(F)F)cc21` [Example 27, (S)-8-((2-amino-4-methylpentyl)oxy)-9-(difluoromethyl)-4,6-dimethylbenzo[c][2,7]naphthyridin-5(6H)-one], for which, in experiment [1], 0.3 nM corresponded to half-maximal inhibition (IC50). On to `Cc1nccc2c1c(=O)n(C)c1cc(OCC(N)CCC(F)(F)F)c(C#N)cc21` (centres unmarked) [Example 73, 8-(2-amino-5,5,5-trifluoropentyloxy)-4,6-dimethyl-5-oxo-5,6-dihydrobenzo[c][2,7]naphthyridine-9-carbonitrile], for which the IC50 in experiment [1] (given as IC50 range) and in experiment [2] (given as IC50 range) was 1 to 10 nM in each case. In the case of `Cc1nccc2c1c(=O)n(C)c1cc(OC[C@@H](N)CC(C)C)c(Cl)cc21` [Example 62, (S)-8-((2-amino-4-methylpentyl)oxy)-9-chloro-4,6-dimethylbenzo[c][2,7]naphthyridin-5(6H)-one], the IC50 in experiment [1] (given as IC50 range) and in experiment [2] (given as IC50 range) was 1 to 10 nM throughout. As to `Cc1cc2c3ccnc(C)c3c(=O)n(C)c2cc1OC[C@@H](N)CC(C)C` [Example 63, (S)-8-(2-amino-4-methylpentyloxy)-4,6,9-trimethylbenzo[c][2,7]naphthyridin-5(6H)-one], the IC50 in experiment [1] (given as IC50 range) and in experiment [2] (given as IC50 range) was 1 to 10 nM in each case. Take `CC(C)C[C@H](N)COc1cc2c(cc1F)c1ccncc1c(=O)n2C` [Example 14, (S)-8-((2-amino-4-methylpentyl)oxy)-9-fluoro-6-methylbenzo[c][2,7]naphthyridin-5(6H)-one]: the results for the IC50 in experiment [1] (given as IC50 range) and in experiment [2] were 1 to 10 nM and 7 nM, respectively.

Turning to `Cc1cc2c3ccnc(C)c3c(=O)n(C)c2cc1OC[C@@H](N)CC1CCC1` [Example 26, (S)-8-(2-amino-3-cyclobutylpropoxy)-4,6,9-trimethylbenzo[c][2,7]naphthyridin-5(6H)-one], the IC50 in experiment [1] (given as IC50 range) is 1 to 10 nM; in experiment [2], 2.9 nM.

In the case of `Cc1nccc2c1c(=O)[nH]c1cc(OC[C@@H](N)CC(C)C)c(Br)cc12` [Example 49, (S)-8-(2-amino-4-methylpentyloxy)-9-bromo-4-methylbenzo[c][2,7]naphthyridin-5(6H)-one], inhibition in experiment [1] was half-maximal at 0.6 nM (IC50). Still for that read-out and setting: the result for `Cc1cc2c3ccncc3c(=O)n(C)c2cc1OC[C@@H](N)CC(C)C` [Example 4, (S)-8-((2-amino-4-methylpentyl)oxy)-6,9-dimethylbenzo[c][2,7]naphthyridin-5(6H)-one] reads 2.4 nM; that for `CC(C)C[C@H](N)COc1cc2c(cc1Cl)c1ccncc1c(=O)n2C` [Example 43, (S)-8-((2-amino-4-methylpentyl)oxy)-9-chloro-6-methylbenzo[c][2,7]naphthyridin-5(6H)-one], 5 nM; that for `CC(C)C[C@H](N)COc1c(Cl)cc2c3ccncc3c(=O)n(C)c2c1Cl` [Example 10, (S)-8-((2-amino-4-methylpentyl)oxy)-7,9-dichloro-6-methylbenzo[c][2,7]naphthyridin-5(6H)-one], 29 nM.

For `Cc1nccc2c1c(=O)n(C)c1c(F)c(OCC(C)(N)CC(C)C)ccc21` (centres unmarked) [Example 29, 8-((2-amino-2,4-dimethylpentyl)oxy)-7-fluoro-4,6-dimethylbenzo[c][2,7]naphthyridin-5(6H)-one], the IC50 in experiment [2] (given as IC50 range) was 100 to 2000 nM. The same measure, in the same setting: the result for `Cc1nccc2c1c(=O)[nH]c1cc(OCC(C)(N)CC(C)C)c(F)cc12` (centres unmarked) [Example 102, 8-(2-amino-2,4-dimethylpentyloxy)-9-fluoro-4-methylbenzo[c][2,7]naphthyridin-5(6H)-one] reads 1 to 10 nM; that for `Cc1cc2c(cn1)c(=O)n(C)c1cc(OC[C@@H](N)CC(C)C)c(Br)cc21` [Example 66], 100 to 2000 nM. On to `Cc1nccc2c1c(=O)[nH]c1c(F)c(OC[C@@H](N)CC(C)C)ccc12` [Example 82, (S)-8-(2-amino-4-methylpentyloxy)-7-fluoro-4-methylbenzo[c][2,7]naphthyridin-5(6H)-one], for which the half-maximal inhibitory concentration (IC50) in experiment [2] was found to be 150 nM.

As for `COCCn1c(=O)c2c(C)nccc2c2ccc(OC[C@@H](N)CC(C)C)cc21` [Example 80, (S)-8-((2-amino-4-methylpentyl)oxy)-6-(2-methoxyethyl)-4-methylbenzo[c][2,7]naphthyridin-5(6H)-one], the 50% inhibitory concentration (IC50) in experiment [2] is 134 nM. Same read-out and setting: the same measure for `CC(C)C[C@H](N)COc1ccc2c3ccncc3c(=O)n(Cc3ccccc3)c2c1` [Example 11, (S)-8-((2-amino-4-methylpentyl)oxy)-6-benzylbenzo[c][2,7]naphthyridin-5(6H)-one]: 73 nM. Consider `CC(C)C[C@H](N)COc1ccc2c3ccncc3c(=O)n(CC3CC3)c2c1` [Example 13, (S)-8-((2-amino-4-methylpentyl)oxy)-6-(cyclopropylmethyl)benzo[c][2,7]naphthyridin-5(6H)-one], for which the IC50 in experiment [2] (given as IC50 range) was in the range of 10 to 100 nM.

`CC(C)C[C@H](N)COc1cc2c(cc1C#N)c1ccncc1c(=O)n2C` [Example 5, (S)-8-((2-amino-4-methylpentyl)oxy)-6-methyl-5-oxo-5,6 dihydrobenzo[c][2,7]naphthyridine-9-carbonitrile]: inhibition in experiment [1] was half-maximal at 2.5 nM (IC50).

`Cc1nccc2c1c(=O)n(C)c1cc(OC[C@@](C)(N)CC(C)C)ccc21` (single isomer, unassigned) [Example 38]: the IC50 in experiment [2] came to 13 nM.
